# Patent US9487551B2, “Small molecule compounds that control mammal-pathogenic nematodes” (California Institute of Technology, priority 2011, dated 2016)
# Entries after “also recorded” stand apart in the source; their conditions may differ.
# Assays:
# C. elegans dauer larvae = experiment: Dispersal assay; assay type: in vivo; conditions: physiological concentration; 0.25% E. coli added; food-only control approximately 35%
# Method: C. elegans dauer juveniles were washed with MILLI-Q water 3 times, placed into 6 cm petri dishes with a small amount of water, and rested overnight. Approximately 200-300 nematodes in 10 μl of water were placed on an agar plate, to which 2 μl of treatment was added. The liquid culture that produced 60% dauer animals was centrifuged, filtered with a 0.45 μm filter, and used as a positive control for dispersal. Thereafter, media were lyophilized and resuspended in MILLI-Q water 5 times. 2 μl to 10 μl of nematode suspension was used for the assay. As a negative control, 0.5% E. coli (HB101) was prepared in S-complete, lyophilized, and adjusted to the final volume of 0.25% E. coli in the assay.
# Nematodes were quantified using Image J software (Image Processing and Analysis in Java, National Institutes of Health). The number of nematodes visualized and counted using Image J is illustrated in FIG. 63B. Nematodes inside the circle were subtracted manually from the total number of worms counted because of the location of their placement. Each treatment was replicated 9-11 times. The graph was normalized to the positive control, the dauer conditioned medium.
# A synthetic blend of these ascarosides was then tested for dispersal activity, using the dauer conditioned medium as a positive control. The media was estimated to contain approximately half of the original 0.5% E. coli (HB101) food source. […]
# C. elegans males = experiment: Attraction assay (long-range, point source); assay type: in vivo; conditions: 10 cm plate
# Method: 10 cm standard chemotaxis plates were prepared (Bargmann et al., Cell 74:515-27 (1993), which is hereby incorporated by reference in its entirety) and stored at 4° C. until the day before use. Standard 1 cm-diameter copper pipes were sectioned into 1 cm-tall segments to use for the holding chambers. The females/hermaphrodites were isolated overnight, washed 3 times in M9 buffer, and then allowed to wander on a plate pre-conditioned with 50 uL of 1000× treptomycin for 2 hours to kill any bacteria that might produce a false positive attractant. The nematodes were then washed 3 times, and the supernatant from the last wash was placed in a copper chamber, as the control, 1 cm from the border of the 10 cm plate. The nematodes were suspended in M9 within the copper chamber, 1 cm from the border opposite the control chamber. After 6 hours, they were subsequently removed and replaced with 3 μL of 1M sodium azide. 100 C. elegans adult males were isolated overnight, washed several times in ddH2O, and placed at the center of the agar plate. After several hours, males paralyzed within 2 cm of each region were scored. The Chemotaxis Index (Bargmann et al., Cell 74:515-27 (1993), which is hereby incorporated by reference in its entirety) was then used to score male chemotaxis to either point source.
# C. elegans [1] = experiment: Ascaroside function (Table 12); assay type: in vivo, Caenorhabditis elegans; design: key to Attract Females/Herm. / Promote Dauer Formation / Attract Males: A very strong result of affecting nematode behavior is designated in the table as “strong.”; conditions: listed = has this function
# Method: (§1) Various ascarosides and ascaroside blends were administered to various nematodes described below (Table 12). […] A very strong result of affecting nematode behavior is designated in the table as “strong.”
# S. feltiae = experiment: Ascaroside function (Table 12); assay type: in vivo, Steinernema feltiae; conditions: listed = has this function
# Method: as §1
# C. elegans [2] = conditions: cited from earlier work
# C. elegans [3] = conditions: in vivo; cited from earlier work
# [4] = tested on: Several of the tested nematode species; experiment: Retention assay; assay type: in vivo; conditions: 1 nM, 1 μM and 1 mM tested
# Method: (§2) OP50 E. coli was grown on a standard 5 cm agar plate (made with standard Nematode Growth Medium). The bacterial lawn was 16 mm in diameter and was grown overnight at 20° C. before being used in trials. Two 4 mm spots (0.6 μL) were placed on opposite sides of the bacterial lawn (using a transparent template to guide spot placement), and several minutes elapsed for the liquid to settle in before placing nematodes down on the assay. Recording began immediately upon worm placement. 0.6 μL of the control was placed on one side of the lawn, and 0.6 μL of the experimental cue was placed on the other side of the lawn, changing the location of the cue throughout trials between left/right and top/bottom to avoid bias.
# (§3) Nematodes were isolated by gender at the L4 stage the day before being used in trials as developed adults. Worms were evenly divided and placed at two points equidistant from the foci of the scoring region. Trials were recorded for 20 minutes, and frames were collected for analysis at 1 frame per second. Results were averaged from at least three different trials. For every nematode species in this study, a different total number of worms (using water in both scoring regions) was tested to determine the minimum number of worms necessary for consistent unbiased results over a 20 minute trial. The total number of worms used in the multiple species assays depended on that species' optimal parameters. 10 worms were used for P. redivivus males and females, 20 worms were used for C. elegans males and O. dolichuridae males, and 14 worms were used for S. glaseri males. The Automated Software was used to compare worm occupancy in each scoring region over time, and the Chemotaxis Index (Bargmann et al., Cell 74:515-27 (1993), which is hereby incorporated by reference in its entirety) was adapted to score preference or avoidance to each ascaroside.
# (§4) A video camera attached to the microscope produced a digital video stream, which was then analyzed. The ratio of the time the average worm spent in each region of interest was calculated for every trial. For ease of implementation, all worms in a single experiment were assumed to be roughly the same size. Thus worm pixels were counted instead of whole worms, allowing fractions of a worm in the region of interest to be taken into account. It also eliminated the need for a shape-based worm identification algorithm, and allowed each frame to be analyzed independently. A band-pass filter was applied to each frame to eliminate the effect of uneven lighting and also accentuate the worms against the background. The worm was then identified after thresholding the filtered image. Throughout each experiment, the locations and sizes of the regions of interest were known. Through the filtering described above, it is known which pixels are occupied by worms and which ones are not. Thus, the ratio of worm-pixels to all pixels inside the region of interest can be calculated to produce the worm-occupancy ratio. This calculation was done for every frame, giving a plot output of worm-occupancy ratio vs. time for each region.
# Panagrellus redivivus = experiment: Ascaroside function (Table 12); assay type: in vivo; conditions: listed = has this function
# Method: as §1
# S. glaseri = experiment: Ascaroside function (Table 12); assay type: in vivo; conditions: listed = has this function
# Method: as §1
# C. elegans [5] = experiment: Spot attraction assay; assay type: in vivo
# Method: The spot attraction assays were conducted according to a previously reported method (Pungaliya et al., PNAS 106:7708-13 (2009); Srinivasan et al., Nature 454:1115-18 (2008), which are hereby incorporated by reference in their entirety). For both C. elegans hermaphrodites and males, 50-60 worms were harvested daily at the fourth larval stage (L4) and stored segregatedly by sex at 20° C. overnight, to be used as young adults the following day. For the competition experiments, two conditions were used: 120 nM ascr#3 and 10 nM icas#3 (Condition 1), or 12 μM ascr#3 and 1 μM icas#3 (Condition 2) in water containing 10% ethanol. Aliquots were stored at −20° C. in 20 μL tubes. 10% ethanol in water was used as control.
# Attraction assays with hbas#3 were conducted as previously reported (Srinivasan et al., Nature 454:1115-18 (2008); Pungaliya et al., Proc. Natl. Acad. Sci. U.S.A. 106:7708-13 (2009), which are hereby incorporated by reference in their entirety). For the attraction assays, 50-60 hermaphrodite worms were harvested daily at the early fourth larval stage (L4) and stored at 20° C. overnight to be used as young adults the following day. Hbas#3 was dissolved in water containing 10% ethanol. Aliquots were stored at −20° C. in 20 μL tubes. 10% ethanol in water was used as control.
# C. elegans [6] = experiment: Aggregation assay; assay type: in vivo
# Method: Aggregation behavior of worms was measured using assays reported in de Bono & Bargmann, Cell 94:679-89 (1998), which is hereby incorporated by reference in its entirety. Aggregation assays were conducted on standard NGM plates. Plates containing indole ascarosides were made by adding the indole ascaroside stock solution to the NGM media before they were poured onto the plates. These plates were dried at room temperature for 2 to 3 days. Control plates were treated similarly, except that ethanol solutions instead of icas solutions were added to the plates, corresponding to the amount of ethanol introduced via the icas solutions. Final ethanol concentrations of the plates were below 0.1% for all conditions. After drying, both control plates and plates containing indole ascarosides were seeded with 150 μl of an overnight culture of E. coli OP50 using a micropipette, and were allowed to dry for 2 days at room temperature. For “low worm density” experiments, 20 worms were placed onto the lawn and left at 20° C. for 3 hours. For “high worm density” experiments, approximately 120 worms were placed onto the bacterial lawn and left at 20° C. for 3 hours. Aggregation behavior was quantified as the number of animals that were in touch with two or more animals at greater than 50% of their body length.
# [7] = tested on: P. redivivus males and females; experiment: Retention assay; assay type: in vivo
# Method: as §2, §3, §4
SMILES,"dispersing nematodes, normalized to the percent of the positive control response (C. elegans dauer larvae) [%]",male attraction from a distance (C. elegans males),Attract Males (C. elegans [1]),"Dispersal (of dauer larvae, infectious juveniles) (C. elegans [1])",Promote Dauer Formation (C. elegans [1]),"Dispersal (of dauer larvae, infectious juveniles) (S. feltiae)",dauer-inducing activity (C. elegans [3]),other results
CC(=O)CCC[C@@H](C)O[C@@H]1O[C@@H](C)[C@H](O)C[C@H]1O [ascr#2],40,chemotax towards,ascr#2,ascr#2,ascr#2 ([strong]),ascr#2,individually promote dauer entry,amount as low as which elicited C. elegans male attraction (C. elegans males): 500 attomol; most active amount for attraction (C. elegans [2]; from 1 μM concentration): ~1 pmol
C[C@H](CC/C=C/C(=O)Nc1ccc(C(=O)O)cc1)O[C@@H]1O[C@@H](C)[C@H](O)C[C@H]1O [ascr#8],50,not active,ascr#8,ascr#8,ascr#8 ([strong]),ascr#8,individually promote dauer entry,preference for ascaroside-conditioned areas [4]: preferred areas conditioned; Attract Females/Herm. (Panagrellus redivivus): ascr#8; Attract Males (Panagrellus redivivus): ascr#8; Attract Males (S. glaseri): ascr#8; male attraction (C. elegans [2]; in vivo): major component of the male-attracting signal
C[C@H](CCC(=O)O)O[C@@H]1O[C@@H](C)[C@H](OC(=O)c2c[nH]c3ccccc23)C[C@H]1O [icas#9],,,([strong]),,icas#9,icas#9,moderate dauer-inducing activity; also recorded: individually promote dauer entry,"attraction in spot attraction assay (C. elegans [5]; 1 pmol (high concentrations), N2 hermaphrodites and him-5 males): attractive to both C. elegans sexes; also recorded: attracted both males and hermaphrodites; attraction of hermaphrodites (C. elegans [5]; low concentrations, N2 hermaphrodites): strongly attracted; attraction of males (C. elegans [5]; low concentrations, males): males are not attracted; aggregation of solitary and social hermaphrodites (C. elegans [6]; constant background concentration): increased aggregation; also recorded: strongly increased the propensity; concentration window for hermaphrodite attraction and aggregation (C. elegans [6]; in vivo): femtomolar to picomolar; response of P. redivivus males [7]: no response; Attract Females/Herm. (C. elegans [1]): icas#9 ([strong]); Repel Females/Herm. (Panagrellus redivivus): icas#9; aggregation (C. elegans [2]; in vivo): aggregating stimulant"
